Laboratory results reported in patent publication US20120004214A1 (priority 2009, published 2012).

Target: α7-subtype of nicotinic receptors (Rattus norvegicus, UniProt Q05941)
Experiment: biochemical
Format: binding

Sequence of α7-subtype of nicotinic receptors (Q05941 23-502): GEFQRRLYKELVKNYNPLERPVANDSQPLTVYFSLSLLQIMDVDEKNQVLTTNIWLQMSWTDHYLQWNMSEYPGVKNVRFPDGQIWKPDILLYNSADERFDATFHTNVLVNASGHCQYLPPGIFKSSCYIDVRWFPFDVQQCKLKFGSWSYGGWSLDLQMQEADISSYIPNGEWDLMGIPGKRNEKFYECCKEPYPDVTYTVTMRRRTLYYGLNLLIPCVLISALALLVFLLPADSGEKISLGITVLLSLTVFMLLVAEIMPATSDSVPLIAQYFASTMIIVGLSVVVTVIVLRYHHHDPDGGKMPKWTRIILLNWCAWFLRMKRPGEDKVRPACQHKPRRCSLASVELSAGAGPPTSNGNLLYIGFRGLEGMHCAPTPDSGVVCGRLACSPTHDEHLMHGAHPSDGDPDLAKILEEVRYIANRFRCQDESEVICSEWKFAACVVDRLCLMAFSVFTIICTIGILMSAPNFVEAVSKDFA

[O-][N+]12CCC(CC1)N(c1ncc(-c3ccc4[nH]ccc4c3)cn1)CC2 [Compound 1, 4-[5-(1H-Indol-5-yl)-pyrimidin-2-yl]-1,4-diaza-bicyclo[3.2.2]nonane 1-oxide]
IC50: < 40 nM
